Source: patent US4869900A, “Pharamaceutical composition containing ubidecarenone” (Zambon S.p.A., priority 1985, dated 1989)

Assays:
[1] = Stability of CoQ10 in the compositions (one year at 30° C.); assay type: physicochemical; conditions: after one year at 30° C., in the compositions or pharmaceutical preparations according to the invention
[2] = takes place through the lymphatic system; cited from earlier work
[3] = tested on: cardiac affections such as cardiac deficiency, ischemic disease; conditions: treatment of several cardiac affections such as cardiac deficiency; cited from earlier work

degradation of CoQ10 [1]: no degradation
Structure (SMILES): COC1=C(OC)C(=O)C(C/C=C(\C)CC/C=C(\C)CC/C=C(\C)CC/C=C(\C)CC/C=C(\C)CC/C=C(\C)CC/C=C(\C)CC/C=C(\C)CC/C=C(\C)CCC=C(C)C)=C(C)C1=O [CoQ10, Coenzyme Q10]
absorption [2]: scarce | clinical effectiveness [3]: clinically effective
